Like-named read-outs stand apart in the source and are kept apart here.
Columns and labels:
human GPR119 (hGPR119) = target: T1, human GPR119 (hGPR119) (Homo sapiens, UniProt Q8TDV5); experiment: cAMP accumulation assay (cAMP Gs dynamic HTRF kit); type: cell-based; conditions: CHO-K1 cells stably expressing hGPR119, 4-parameter fit; for Emax: 1 h, % activity normalized to Max/Min controls; for EC50: cAMP accumulation
T1 construct: expressed in transfected cells
T1 sequence (Q8TDV5 1-335): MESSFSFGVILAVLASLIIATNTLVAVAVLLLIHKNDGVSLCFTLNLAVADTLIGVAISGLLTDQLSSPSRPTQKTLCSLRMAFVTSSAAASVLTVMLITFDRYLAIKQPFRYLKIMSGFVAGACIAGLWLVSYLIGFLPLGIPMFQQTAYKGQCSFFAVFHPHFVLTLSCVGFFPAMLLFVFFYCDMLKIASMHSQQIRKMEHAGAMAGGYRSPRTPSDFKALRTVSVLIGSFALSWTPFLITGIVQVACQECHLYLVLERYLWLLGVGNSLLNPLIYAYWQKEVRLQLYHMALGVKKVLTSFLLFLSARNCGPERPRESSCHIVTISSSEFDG
Method in brief: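 CHO-K1 cells stably expressing hGPR119, used as assay-ready frozen stocks at ~10,000 cells/well, exposed to compound dose-response in stimulation buffer with Tween 80 for 60 min at 37° C. cAMP read by HTRF (665/620 nm ratio), normalised to Max/Min controls; EC50 and Max activity from 4-parameter fit.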

[1] = In vivo plasma levels in mice after oral gavage; parameters: species or system C57BL/6J mice; conditions: mouse, 30 mpk oral gavage; for Exposure unbound (plasma): total exposure x free fraction from plasma protein binding
Procedure: Male C57BL/6J mice 10-12 weeks old were dosed with test article or vehicle [0.25% (w/v) methylcellulose, 5% (v/v) Polysorbate 80, and 0.02% (w/v) sodium lauryl sulfate in Hanks' Balanced Salt solution (all final concentrations)] by oral gavage at a volume of 10 mL/kg. Animals were euthanized with carbon dioxide 7-8 h post dose. Blood was collected for measurement of plasma concentrations of test article. Unbound exposure was calculated by multiplying the measured total exposure by the free fraction as assessed from plasma protein binding.
Plasma protein binding to isotonic phosphate buffer (PBS) containing 10% C57 BL/6 mouse plasma was determined using equilibrium dialysis of plasma spiked with test article (2 μM) against a dialysis buffer (100 mM sodium phosphate and 150 mM NaCl). At the end of the dialysis (4 hr), aliquots of the plasma and buffer were processed by protein precipitation for LC-MS/MS analysis to quantitate the test article.

[2] = in rats; Bioorganic & Medicinal Chemistry Letters 27(5), 2017, 1124-1128 (Compound 17 in the reference); cited from earlier work
[3] = In vivo plasma levels in mice after oral gavage; parameters: species or system C57BL/6J mice; conditions: mouse, 30 mpk oral gavage, 2 h post-dose; for concentration at 2 h: male, C57BL/6J, plasma, 30 mg/kg, read-out: Exposure Total (plasma)
[4] = Oral bioavailability in mice; conditions: mouse, in vivo; C57BL/6 mice; IV 1 mg/kg, PO 30 mg/kg
Procedure: Compounds were dosed IV at 1 mg/kg as a formulation of 0.5 mg/mL in 5% DMSO+30% PEG400+65% water and PO at 30 mg/kg as a formulation of 6 mg/mL in 0.25% methylcellulose+5% Tween 80+0.02% SDS in water (Compound 42) or 0.5% methylcellulose+0.5% Tween 80 in water (Compound 83).

[5] = male, C57BL/6J, plasma, 30 mg/kg, 7 h post-dose, read-out: Exposure Total (plasma)

## O=C(NC[C@H](O)[C@@H](O)[C@H](O)[C@H](O)CO)C1CN(C(=O)Cc2ccc(OCCCC3CCN(c4ncc(Cl)cn4)CC3)cc2F)C1 (racemic) [Example 37, 1-[2-[4-[3-[1-(5-chloropyrimidin-2-yl)-4-piperidyl]propoxy]-2-fluoro-phenyl]acetyl]-N-[rac-(2S,3R,4R,5R)-2,3,4,5,6-pentahydroxyhexyl]azetidine-3-carboxamide]
Human GPR119 (hGPR119)
  Emax: 100 to 130%
  EC50: 100 to 1000 nM
[1]; [5]
  concentration at 7 h: 551 nM
[1]; 7 h post-dose
  Exposure unbound (plasma): 1.1 nM

## O=C(CC1CN(C(=O)Cc2ccc(OCCCC3CCN(c4ncc(Cl)cn4)CC3)cc2F)C1)NC[C@H](O)[C@@H](O)[C@H](O)[C@H](O)CO (racemic) [Example 38, 2-[1-[2-[4-[3-[1-(5-chloropyrimidin-2-yl)-4-piperidyl]propoxy]-2-fluoro-phenyl]acetyl]azetidin-3-yl]-N-[rac-(2S,3R,4R,5R)-2,3,4,5,6-pentahydroxyhexyl]acetamide]
Human GPR119 (hGPR119)
  Emax: ≥ 130%
  EC50: 100 to 1000 nM
[1]; [5]
  concentration at 7 h: 76 nM
[1]; 7 h post-dose
  Exposure unbound (plasma): 0.2 nM

## COCc1cnc(N2CCC([C@H]3C[C@H]3CCOc3cc(F)c(CC(=O)N4CCC4)c(F)c3)CC2)nc1 [1-(azetidin-1-yl)-2-(2,6-difluoro-4-(2-((1S,2R)-2-(1-(5-(methoxymethyl)pyrimidin-2-yl)piperidin-4-yl)cyclopropyl)ethoxy)phenyl)ethan-1-one]
[2]
  bioavailability: 80%

## COc1c(Nc2ccc(S(C)(=O)=O)nc2C)ncnc1OC1CCN(C(=O)OC(C)C)CC1 [APD597, isopropyl 4-((5-methoxy-6-((2-methyl-6-(methylsulfonyl)pyridin-3-yl)amino)pyrimidin-4-yl)oxy)piperidine-1-carboxylate, reference compound]
[3]
  concentration at 2 h: 16200 nM

## O=C(NC(CO)(CO)CO)C1CN(C(=O)Cc2ccc(OCCCC3CCN(c4ncc(Cl)cn4)CC3)cc2F)C1 [Example 29, 1-[2-[4-[3-[1-(5-chloropyrimidin-2-yl)-4-piperidyl]propoxy]-2-fluoro-phenyl]acetyl]-N-[2-hydroxy-1,1-bis(hydroxymethyl)ethyl]azetidine-3-carboxamide]
Human GPR119 (hGPR119)
  Emax: ≥ 130%
  EC50: ≤ 100 nM
[1]; [5]
  concentration at 7 h: 354 nM
[1]; 7 h post-dose
  Exposure unbound (plasma): 0.7 nM

## O=C(Cc1ccc(OCCCC2CCN(c3ncc(Cl)cn3)CC2)cc1F)N1CC(CNC[C@H](O)[C@@H](O)[C@H](O)[C@H](O)CO)C1 [Example 42, 2-[4-[3-[1-(5-chloropyrimidin-2-yl)-4-piperidyl]propoxy]-2-fluoro-phenyl]-1-[3-[[[(2S,3R,4R,5R)-2,3,4,5,6-pentahydroxyhexyl]amino]methyl]azetidin-1-yl]ethanone]
Human GPR119 (hGPR119)
  Emax: 100 to 130%
  EC50: 100 to 1000 nM
[1]; male, C57BL/6J, plasma, 30 mg/kg, 8 h post-dose, read-out: Exposure Total (plasma)
  concentration at 8 h: 369 nM
[1]; 8 h post-dose
  Exposure unbound (plasma): 1.1 nM
[4]
  bioavailability: 2.4%
[3]
  concentration at 2 h: 806 nM
[3]; total exposure x free fraction from plasma protein binding
  Exposure unbound (plasma): 2.4 nM

## O=C(Cc1ccc(OCCCC2CCN(c3ncc(Cl)cn3)CC2)cc1F)N1CC(CNC(CO)(CO)CO)C1 [Example 44, 2-[4-[3-[1-(5-chloropyrimidin-2-yl)-4-piperidyl]propoxy]-2-fluoro-phenyl]-1-[3-[[[2-hydroxy-1,1-bis(hydroxymethyl)ethyl]amino]methyl]azetidin-1-yl]ethanone]
Human GPR119 (hGPR119)
  Emax: ≥ 130%
  EC50: ≤ 100 nM
[1]; [5]
  concentration at 7 h: 668 nM
[1]; 7 h post-dose
  Exposure unbound (plasma): 0.7 nM

## COCc1cnc(N2CCC(CCCOc3ccc(CC(=O)N4CC(CNC[C@H](O)[C@@H](O)[C@H](O)[C@H](O)CO)C4)c(F)c3)CC2)nc1 [Example 83, 2-[2-fluoro-4-[3-[1-[5-(methoxymethyl)pyrimidin-2-yl]-4-piperidyl]propoxy]phenyl]-1-[3-[[[(2S,3R,4R,5R)-2,3,4,5,6-pentahydroxyhexyl]amino]methyl]azetidin-1-yl]ethanone]
Human GPR119 (hGPR119)
  Emax: 100 to 130%
  EC50: 100 to 1000 nM
[4]
  bioavailability: 1.4%

## O=C(Cc1ccc(OCC[C@@H]2C[C@@H]2C2CCN(c3ncc(Cl)cn3)CC2)cc1F)N1CC(CNC[C@H](O)[C@@H](O)[C@H](O)[C@H](O)CO)C1 [Example 86, 2-[4-[2-[(1S,2R)-2-[1-(5-chloropyrimidin-2-yl)-4-piperidyl]cyclopropyl]ethoxy]-2-fluoro-phenyl]-1-[3-[[[(2S,3R,4R,5R)-2,3,4,5,6-pentahydroxyhexyl]amino]methyl]azetidin-1-yl]ethanone]
Human GPR119 (hGPR119)
  Emax: 100 to 130%
  EC50: 100 to 1000 nM
[1]; [5]
  concentration at 7 h: 67 nM
[1]; 7 h post-dose
  Exposure unbound (plasma): 0.1 nM

## CC(C)c1noc(N2CCC(COc3ccc(-c4ccc(S(C)(=O)=O)cc4)nc3)CC2)n1 [GSK1292263, 3-isopropyl-5-(4-(((6-(4-(methylsulfonyl)phenyl)pyridin-3-yl)oxy)methyl)piperidin-1-yl)-l,2,4-oxadiazole, reference compound]
[3]
  concentration at 2 h: 7840 nM

From patent US20230061736A1, “GPR119 AGONISTS” (Kallyope, Inc., priority 2019, published 2023)
